These results are taken from US20240400986A1, “MEMBRANE BOUND COMPOSITIONS AND METHODS RELATING TO SAME” (FLAGSHIP PIONEERING INNOVATIONS VII, LLC, priority 2021, published 2024).

Data set [1] has as its system neuronal cell line derived from human neuroblastoma.
Data set [2] shares this test system. Kind of data set: Small molecule compound screen of gigasome production in neuronal monocultures. Conditions: for fold induction at 0.01 µM / fold induction at 0.1 µM / fold induction at 1 µM / fold induction at 10 µM: Homo sapiens, read-out: Fold Change of Gigasomes Produced vs. DMSO; for Number of Gigasomes Produced / Fold Change of Gigasomes Produced vs. DMSO: 24 hours.
Source text: To quantify and characterize gigasome production using microscopy, while tracking cell viability/phenotype, a multi-readout system was developed that allowed simultaneous analysis of gigasomes harvested from cell culture media supernatants and respective gigasome producing cell viability. […] For the screening, a total of 99 compounds (TargetMol) were divided in 5 groups. Each group included an untreated condition, a vehicular DMSO control, and a known high-gigasome producing condition to comparatively study gigasome production rates. As a cell death control group, 500 nM Staurosporine was added to induce apoptosis. Cultures were incubated for 24 hours under gigasome inducing conditions at concentrations ranging between 10 nM and 10,000 nM. Before the end of the treatment, live neuronal cultures were imaged. The Zeiss ZEN Blue software was used to distribute imaging fields of view (positions) to create an unbiased imaging sample of a well. 5 images were taken using a Zeiss LSM 900 confocal microscope. […] The BioApps ZEN software package was used to perform cell nucleus segmentation and counting. After 24 hours, gigasomes were harvested from the cell culture media by gently removing from the top of each 96-well ⅔ of the total volume without disturbing the cell layer (containing the settled gigasomes) and by adding to each well the same amount of PBS. The wells were washed twice gently, and the gigasome-containing media/PBS wash was transferred into the well of a 384-well glass bottom plate. Cells remaining in the 96-well plates were assessed for viability using CellTiter-Glo (Promega).
For gigasome analysis in 384-well plates, the Zeiss ZEN Blue software was used to distribute positions to create an unbiased imaging sample of a well. 6 images per well were taken using a Zeiss LSM 900 confocal microscope.
A watershed binary segmentation step was performed to separate grouped objects. For each particle in the mask, characteristic parameters of the particle were calculated and saved.
Particles of interest were identified by thresholding by area and circularity. […] Circularity, defined by the formula 4pi(area/perimeter^2, was set to be between 0.8 and 1, where a value of 1.0 is a perfect circle, and a value of 0 is a line. Gigasomes were identified from the particles of interest by thresholding by mean nuclear signal. The nuclear signal threshold was set using a value equal to one fourth of a threshold value calculated by the Li auto-threshold algorithm applied to the distribution of all particles of interest. Particles of interest with nuclear signal below this value were considered “negative” for nuclear material and were identified as gigasomes. A sampling factor was calculated to extrapolate the total quantity of a type of object (particles, particles of interest, gigasomes) in the well. The sampling factor was the percentage of the well's area that was imaged. […] The normalized quantity or distribution of objects was described as a quantity or distribution of objects per 1000 cells.

[3] abbreviates: neuronal cells, dose 10 nM, 24 hours.
[4] abbreviates: neuronal cells, dose 100 nM, 24 hours.
Where [5] appears, read: neuronal cells, dose 1000 nM, 24 hours.

Read-outs that look alike come from different tables or passages of the source. Bounds are passed on as bounds.

Take `CC(=O)Nc1cccc(-n2c(=O)n(C3CC3)c(=O)c3c(Nc4ccc(I)cc4F)n(C)c(=O)c(C)c32)c1` [Trametinib, reference compound]: the Viability in data set [1] (human, 24 h, 10 nM) was more than 75%; in data set [1] (human, 24 h, 100 nM) it was more than 75%; in data set [1] (human, 24 h, 1000 nM), more than 75%. The fold induction at 0.01 µM in data set [2] (24 h) was 1.25 to 1.5. In addition, the fold induction at 0.1 µM in data set [2] (24 h) fell in the range of 1.25 to 1.5. Besides, the fold induction at 1 µM in data set [2] (24 h) was in the range of 2 to 3. Further, the “Number of Gigasomes Produced” value in data set [2] (neuronal cells, dose 10 nM) was 35-45; in data set [2] (neuronal cells, dose 100 nM) it was 35-45; in data set [2] (neuronal cells, dose 1000 nM), 65-75.

Take `CC1=NS(=O)(=O)c2cc(Cl)ccc2N1` [Diazoxide]: the Viability was 100% in data set [1] (human, 24 h, 100 nM); 100% in data set [1] (human, 24 h, 1000 nM); 100% in data set [1] (human, 24 h, 10000 nM). The fold induction at 0.1 µM in data set [2] (24 h) was in the range of 1.5 to 1.75. The fold induction at 1 µM in data set [2] (24 h) is 1.25 to 1.5. In data set [2] (24 h), the fold induction at 10 µM lay in the range of 1 to 1.25. Moreover, the “Number of Gigasomes Produced” value was 45-55 in data set [2] (neuronal cells, dose 100 nM); 35-45 in data set [2] (neuronal cells, dose 1000 nM); 35-45 in data set [2] (neuronal cells, dose 10000 nM).

As for `Cc1ncc(-c2ccnc(Nc3ccc(S(C)(=O)=O)cc3)n2)n1C(C)C` [AZD-5438], the Viability was 100% in data set [1] (human, 24 h, 10 nM); 100% in data set [1] (human, 24 h, 100 nM); 100% in data set [1] (human, 24 h, 1000 nM). The fold induction at 0.01 µM in data set [2] (24 h) was in the range of 1.5 to 1.75. Also, the fold induction at 0.1 µM in data set [2] (24 h) fell in the range of 1.25 to 1.5. In addition, in data set [2] (24 h), the fold induction at 1 µM fell in the range of 1 to 1.25. Moreover, the “Number of Gigasomes Produced” value in data set [2] (neuronal cells, dose 10 nM) is on record as 45-55; in data set [2] (neuronal cells, dose 100 nM), 35-45; in data set [2] (neuronal cells, dose 1000 nM), 35-45.

As for `COC(=O)c1ccccc1NC(=O)c1ccc(F)cc1` [EXO1, reference compound], the Viability in data set [1] (setting [3]) is 100%; in data set [1] (setting [4]) it was 100%; in data set [1] (setting [5]), 100%; in data set [1] (neuronal cells, dose 10000 nM, 24 hours), 100%. Also, the “Fold Change of Gigasomes Produced vs. DMSO” value in data set [2] (neuronal cells, dose 10 nM) is recorded as 0.75-1.0; in data set [2] (neuronal cells, dose 100 nM), 0.5-0.75; in data set [2] (neuronal cells, dose 1000 nM) it was 0.25-0.5; in data set [2] (neuronal cells, dose 10000 nM), 0.25-0.5. Besides, the “Number of Gigasomes Produced” value in data set [2] (neuronal cells, dose 10 nM) is given as 35-40; in data set [2] (neuronal cells, dose 100 nM), 20-25; in data set [2] (neuronal cells, dose 1000 nM), 10-15; in data set [2] (neuronal cells, dose 10000 nM), 10-15. Besides, the “downregulation of gigasome production” value in data set [2] (neuronal cells, doses 10-10,000 nM, 24 h) is “dose-dependent downregulation”.

Turning to `O=C(c1ccc2nccnc2c1)N1CCCCC1` [CX516], the Viability in data set [1] (setting [3]), in data set [1] (setting [4]) and in data set [1] (setting [5]) was 100% each time. In addition, the fold induction at 0.01 µM in data set [2] (24 h) is 0.75 to 1. Besides, the fold induction at 0.1 µM in data set [2] (24 h) is 1.25 to 1.5. For the same compound, in data set [2] (24 h), the fold induction at 1 µM lay within 1 to 1.25. The “Number of Gigasomes Produced” value in data set [2] (neuronal cells, dose 10 nM) was less than 35; in data set [2] (neuronal cells, dose 100 nM) it was 45-55; in data set [2] (neuronal cells, dose 1000 nM) it was 35-45.

Consider `C/C=C1/[C@H](O[C@@H]2O[C@H](CO)[C@@H](O)[C@H](O)[C@H]2O)OC=C(C(=O)OC)[C@H]1CC(=O)OCCc1ccc(O)c(O)c1` [Oleuropein, reference compound], for which the Viability in data set [1] (human, 24 h, 10 nM) was 100%; in data set [1] (human, 24 h, 100 nM), 100%; in data set [1] (human, 24 h, 1000 nM) it was more than 75%; in data set [1] (human, 24 h, 10000 nM), 100%. For the same compound, the fold induction at 0.01 µM in data set [2] (24 h) lay in the range of 1 to 1.25. Also, in data set [2] (24 h), the fold induction at 0.1 µM fell in the range of 0.75 to 1. The fold induction at 1 µM in data set [2] (24 h) was 0.75 to 1. The fold induction at 10 µM in data set [2] (24 h) lay within 0.5 to 0.75. Further, the “Number of Gigasomes Produced” value is more than 40 in data set [2] (neuronal cells, dose 10 nM); 30-35 in data set [2] (neuronal cells, dose 100 nM); 30-35 in data set [2] (neuronal cells, dose 1000 nM); 25-30 in data set [2] (neuronal cells, dose 10000 nM).

On to `C/C(=C\c1csc(C)n1)[C@@H]1C[C@@H]2O[C@]2(C)CCC[C@H](C)[C@H](O)[C@@H](C)C(=O)C(C)(C)[C@@H](O)CC(=O)N1` [Ixabepilone], for which the Viability in data set [1] (human, 24 h, 10 nM) was 50-75%. In addition, the fold induction at 0.01 µM in data set [2] (24 h) was 2 to 3. Further, in data set [2] (neuronal cells, dose 10 nM), the “Number of Gigasomes Produced” value is given as 65-75.
